Laboratory results published in the NIST ThermoML archive (doi:10.1016/j.jct.2016.03.028).

Assays:
[1] = xn = mol fraction of the nth substance listed; details: Liquid; for speed of sound: 100 kPa, Frequency=3 MHz, Sing-around technique in a fixed-path interferometer; for mass density: 101.3 kPa, Vibrating tube method
[2] = refractive index (Na D-line) (dimensionless); xn = mol fraction of the nth substance listed; details: 100 kPa, Liquid, Standard Abbe refractometry

CCCOCCO [2-propoxyethanol] + CCOS(=O)(=O)[O-].CCn1cc[n+](C)c1
Details | mass density, [1] [kg/m3] | refractive index, [2] | speed of sound, [1] [m/s]
298.15 K, x2 = 0 | 908.31 | 1.41255 | 1299.9
298.15 K, x2 = 0.0496 | 936.15 | 1.41807 | 1322.2
298.15 K, x2 = 0.0901 | 957.3 | 1.42234 | 1339.6
298.15 K, x2 = 0.1345 | 979.08 | 1.42679 | 1358
298.15 K, x2 = 0.1738 | 997.17 | 1.43052 | 1374
298.15 K, x2 = 0.2568 | 1032.34 | 1.43781 | 1407.7
298.15 K, x2 = 0.3477 | 1066.65 | 1.44491 | 1444.5
298.15 K, x2 = 0.4406 | 1097.96 | 1.45131 | 1482.1
298.15 K, x2 = 0.5477 | 1130.29 | 1.45778 | 1525.4
298.15 K, x2 = 0.6478 | 1157.57 | 1.46309 | 1565.2
298.15 K, x2 = 0.7729 | 1188.39 | 1.46902 | 1612.3
298.15 K, x2 = 0.8263 | 1200.6 | 1.4714 | 1630.9
298.15 K, x2 = 0.8757 | 1211.4 | 1.47357 | 1647
298.15 K, x2 = 0.9346 | 1223.63 | 1.47615 | 1664.4
308.15 K, x2 = 0 | 899.5 | 1.40814 | 1265
308.15 K, x2 = 0.0496 | 927.63 | 1.41391 | 1288.6
308.15 K, x2 = 0.0901 | 948.98 | 1.41835 | 1306.8
308.15 K, x2 = 0.1345 | 970.94 | 1.42296 | 1326.1
308.15 K, x2 = 0.1738 | 989.17 | 1.42682 | 1342.8
308.15 K, x2 = 0.2568 | 1024.6 | 1.43433 | 1377.8
308.15 K, x2 = 0.3477 | 1059.1 | 1.44162 | 1415.6
308.15 K, x2 = 0.4406 | 1090.57 | 1.44817 | 1454.2
308.15 K, x2 = 0.5477 | 1123.06 | 1.45477 | 1498.4
308.15 K, x2 = 0.6478 | 1150.45 | 1.4602 | 1539
308.15 K, x2 = 0.7729 | 1181.41 | 1.46625 | 1587
308.15 K, x2 = 0.8263 | 1193.67 | 1.46868 | 1606
308.15 K, x2 = 0.8757 | 1204.51 | 1.47089 | 1622.3
308.15 K, x2 = 0.9346 | 1216.76 | 1.4735 | 1639.9
318.15 K, x2 = 0 | 890.56 | 1.40355 | 1230.1
318.15 K, x2 = 0.0496 | 919 | 1.40953 | 1254.9
318.15 K, x2 = 0.0901 | 940.58 | 1.41413 | 1274
318.15 K, x2 = 0.1345 | 962.75 | 1.41891 | 1294.2
318.15 K, x2 = 0.1738 | 981.14 | 1.4229 | 1311.6
318.15 K, x2 = 0.2568 | 1016.84 | 1.43065 | 1347.8
318.15 K, x2 = 0.3477 | 1051.57 | 1.43817 | 1386.9
318.15 K, x2 = 0.4406 | 1083.21 | 1.44492 | 1426.5
318.15 K, x2 = 0.5477 | 1115.85 | 1.45172 | 1471.8
318.15 K, x2 = 0.6478 | 1143.37 | 1.45729 | 1513.2
318.15 K, x2 = 0.7729 | 1174.46 | 1.46348 | 1562
318.15 K, x2 = 0.8263 | 1186.78 | 1.46595 | 1581.3
318.15 K, x2 = 0.8757 | 1197.67 | 1.46818 | 1597.9
318.15 K, x2 = 0.9346 | 1209.98 | 1.47081 | 1615.7
328.15 K, x2 = 0 | 881.49 | 1.39908 | 1195.8
328.15 K, x2 = 0.0496 | 910.28 | 1.4053 | 1221.5
328.15 K, x2 = 0.0901 | 932.1 | 1.41007 | 1241.4
328.15 K, x2 = 0.1345 | 954.51 | 1.41501 | 1262.4
328.15 K, x2 = 0.1738 | 973.08 | 1.41912 | 1280.5
328.15 K, x2 = 0.2568 | 1009.08 | 1.42711 | 1318.1
328.15 K, x2 = 0.3477 | 1044.05 | 1.43483 | 1358.5
328.15 K, x2 = 0.4406 | 1075.88 | 1.44175 | 1399.3
328.15 K, x2 = 0.5477 | 1108.69 | 1.4487 | 1445.6
328.15 K, x2 = 0.6478 | 1136.34 | 1.45439 | 1487.8
328.15 K, x2 = 0.7729 | 1167.58 | 1.46071 | 1537.5
328.15 K, x2 = 0.8263 | 1179.94 | 1.46322 | 1557
328.15 K, x2 = 0.8757 | 1190.88 | 1.46549 | 1573.9
328.15 K, x2 = 0.9346 | 1203.26 | 1.46815 | 1591.9
